Results on 9 compounds are retold here after PubChem BioAssay (NCI).

Some test systems named below: HT29 colon; SN12C renal; A549 NSCLC; OVCAR-8 ovarian; UO-31 renal; K-562 leukemia; HCC-2998 colon; KM12 colon; CAKI-1 renal; OVCAR-3 ovarian; M14 melanoma; U251 CNS; MDA-MB-435; SK-MEL-28 melanoma; SF-539 CNS; OVCAR-5 ovarian; SNB-75 CNS; NCI-H226 lung.
Common to all, as to experiment: DTP human tumour cell line panel, 48 h

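In this assay, cells in 96-well plates receive the compound at five concentrations for 48 hours. Endpoints are linearly interpolated between the surrounding concentrations. The concentration for full growth arrest is given as TGI.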

As usually defined, the TGI is the concentration at which net growth stops. Consider `CCOP(C)(=O)C(Cc1c[nH]c2ccccc12)C(=O)O` (stereo not given), for which the TGI in the test on HT29 colon, with SN12C renal, with A549 NSCLC, in the test with OVCAR-8 ovarian, with UO-31 renal and in the test with K-562 leukemia was > 100 µM throughout. For the same compound, the TGI with HCC-2998 colon, in the test on KM12 colon, with CAKI-1 renal, in the test on OVCAR-3 ovarian, with M14 melanoma and in the test on U251 CNS was > 100 µM each time. For the same compound, the TGI in the test on MDA-MB-435, in the test with SK-MEL-28 melanoma, in the test with SF-539 CNS, in the test with OVCAR-5 ovarian and in the test on SNB-75 CNS was > 100 µM in each case.

In the case of `CC(C)(C)OC(=O)N(O)[C@@H]1C=C[C@H](n2cnc3c(N)ncnc32)C1`, the TGI in the test with SN12C renal, in the test on A549 NSCLC, in the test with OVCAR-8 ovarian, in the test with UO-31 renal, in the test with K-562 leukemia and in the test on HCC-2998 colon was > 100 µM throughout. In addition, the TGI was 96.9 µM with NCI-H226 lung; > 100 µM in the test on KM12 colon; > 100 µM in the test with CAKI-1 renal; > 100 µM with OVCAR-3 ovarian; > 100 µM in the test with M14 melanoma; > 100 µM in the test on U251 CNS. In addition, the TGI with MDA-MB-435, in the test on SK-MEL-28 melanoma, in the test with SF-539 CNS, with OVCAR-5 ovarian and with SNB-75 CNS was > 100 µM in each case.

For `Cc1ccc(/C(O)=C/c2nc3ccccc3oc2=O)cc1`, the TGI in the test on HT29 colon, with SN12C renal, in the test on A549 NSCLC, in the test on OVCAR-8 ovarian, in the test on UO-31 renal and in the test with K-562 leukemia was > 100 µM in each case. For the same compound, the total growth inhibition concentration (TGI) in the test with HCC-2998 colon, with NCI-H226 lung, in the test on KM12 colon, in the test on CAKI-1 renal, with OVCAR-3 ovarian and with M14 melanoma was > 100 µM each time. Besides, the TGI in the test with U251 CNS is > 100 µM; in the test with MDA-MB-435 it was 83.4 µM; in the test with SF-539 CNS, > 100 µM; with OVCAR-5 ovarian it was > 100 µM; in the test with SNB-75 CNS, > 100 µM.

As to `COc1ccc(NC(=O)CC(=O)N2N=C(N3CCCCC3)CC2c2ccccc2)cc1` (stereo not given), the TGI in the test on HT29 colon, in the test with SN12C renal, with A549 NSCLC, with OVCAR-8 ovarian, in the test on UO-31 renal and with HCC-2998 colon was > 100 µM throughout. Besides, the TGI in the test with NCI-H226 lung, in the test with KM12 colon, with CAKI-1 renal, with OVCAR-3 ovarian, in the test on M14 melanoma and with U251 CNS was > 100 µM in each case. Moreover, the TGI in the test with MDA-MB-435, in the test on SK-MEL-28 melanoma, with SF-539 CNS, in the test on OVCAR-5 ovarian and in the test with SNB-75 CNS was > 100 µM each time.

Consider `COC(=O)/C=C/c1ccc2c(c1)CCC2`, for which the concentration for total growth inhibition (TGI) in the test with HT29 colon, in the test on A549 NSCLC, in the test on OVCAR-8 ovarian, in the test with UO-31 renal, with K-562 leukemia and in the test on HCC-2998 colon was > 100 µM each time. In addition, the TGI in the test with CAKI-1 renal, with OVCAR-3 ovarian, in the test on M14 melanoma, with U251 CNS, in the test on MDA-MB-435 and in the test with SK-MEL-28 melanoma was > 100 µM in each case. For the same compound, the TGI was > 100 µM with SF-539 CNS, > 100 µM with OVCAR-5 ovarian and 91.4 µM in the test on SNB-75 CNS.

In the case of `COc1ccc(CN2C[C@H]3[C@@H](CC(=O)O[C@H]3C)CC2=O)cc1`, the concentration for total growth inhibition (TGI) with HT29 colon, in the test on A549 NSCLC, with OVCAR-8 ovarian, with UO-31 renal, with K-562 leukemia and with HCC-2998 colon was > 100 µM throughout. Further, the TGI with KM12 colon, with CAKI-1 renal, with OVCAR-3 ovarian, in the test with M14 melanoma, with U251 CNS and in the test on MDA-MB-435 was > 100 µM throughout. The TGI with SK-MEL-28 melanoma, in the test with OVCAR-5 ovarian and in the test with SNB-75 CNS was > 100 µM each time.

For `CCCCCCCC1(N=[N+]=[N-])C(=O)c2ccccc2N(C)C1=O` (stereo not given), the TGI in the test on HT29 colon, with SN12C renal, in the test with A549 NSCLC, with OVCAR-8 ovarian, in the test with HCC-2998 colon and with NCI-H226 lung was > 100 µM each time. Moreover, the TGI in the test on KM12 colon, in the test on CAKI-1 renal, in the test on OVCAR-3 ovarian, in the test on M14 melanoma, in the test on U251 CNS and in the test on MDA-MB-435 was > 100 µM throughout. Also, the TGI in the test with SK-MEL-28 melanoma, in the test with SF-539 CNS, with OVCAR-5 ovarian and in the test on SNB-75 CNS was > 100 µM each time.

As for `CCOC(=O)c1cc2c(ccc3cc(C(=O)OCC)[nH]c32)[nH]1`, the TGI is 89.1 µM in the test with SN12C renal; > 100 µM in the test on A549 NSCLC; > 100 µM with UO-31 renal; > 100 µM in the test on K-562 leukemia; > 100 µM with HCC-2998 colon; > 100 µM with KM12 colon. The total growth inhibition concentration (TGI) in the test on CAKI-1 renal is > 100 µM; in the test with OVCAR-3 ovarian, > 100 µM; in the test with M14 melanoma, > 100 µM; in the test on U251 CNS, 19.1 µM; in the test with MDA-MB-435, > 100 µM; in the test with SK-MEL-28 melanoma, 25.7 µM. Also, the TGI with SF-539 CNS is 29.6 µM; in the test on OVCAR-5 ovarian, > 100 µM; in the test on SNB-75 CNS, 41.8 µM.

For the compound `O=C1CCCCC/C1=C\c1ccc(F)cc1`, the TGI with HT29 colon, in the test on SN12C renal, in the test on A549 NSCLC, with UO-31 renal, with K-562 leukemia and in the test on HCC-2998 colon was > 100 µM throughout. For the same compound, the TGI in the test with NCI-H226 lung, in the test on KM12 colon, with CAKI-1 renal, in the test on OVCAR-3 ovarian, in the test on M14 melanoma and in the test with U251 CNS was > 100 µM each time. Besides, the TGI with MDA-MB-435, in the test with SK-MEL-28 melanoma, in the test with OVCAR-5 ovarian and in the test on SNB-75 CNS was > 100 µM each time.
